One assay concerns breast cancer cell lines. The assay is described as follows: Preliminary experiments: lowest dose of TSA inducing cellular responses. The format is cell-based, human. As for the experimental part:
To dissect the role of Tau in controlling chromatin we sought to perturb chromatin structure by inhibiting histone deacetylation with the pan-histone deacetylase-inhibitor trichostatin A (TSA). In our preliminary experiments we found the lowest dose of TSA inducing cellular responses was 100 nM and we used this concentration in all the following experiments. First, we evaluated cell death, apoptosis and cell cycle progression by flow cytometric analyses in the two cell lines (as above we just illustrate our results with MCF7 cells in the main paper). We tested the effect of TSA in the presence or absence of short hairpin RNAs (Tau and Control). After 48 hours there was a strong increase in the number of dead cells from less 2% to >50% in the Tau-knockdown cells and a lesser increase to 38% in sh-ctrl cells (FIG. 1). In agreement, apoptosis was measured at 48% and 30% respectively (FIG. 1C).

For assay [1], the system named is p21 promoter in MCF7shctrl or shTau cells. Put plainly: ChIP-qPCR of H3 acetylation and Tau occupancy on the p21 promoter. The class given is cell-based, human. To be noted: for acetylated H3 enrichment compared to IgG: p21 promoter (transcription start site region). The text has this:
(A) Chromatin immunoprecipitations-qPCR analysis of H3 acetylation and Tau occupancy on the GAPDH promoter in MCF7shctrl cells in the indicated conditions. MCF7shctrl cells were subjected to cross-linking by 1% formaldehyde. Chromatin fragments were then immunoprecipitated using antibodies (Ab) against acetylated H3 (ac-H3) or Tau and analyzed by quantitative PCR for the presence of the GAPDH promoter. (B) Functional organization of the p21 promoter. (C) ChIP-qPCR analysis of H3 acetylation in MCF7shctrl or shTau cells or (D) Tau occupancy in MCF7shctrl cells on the p21 promoter. (E) ChIP-qPCR analysis of H3 acetylation or Tau occupancy on the stably transfected GAL4UAS responsive luciferase reporter transfected, or not, with Tau4R, then 24 h later treated with 100 nM TSA for 24 h. Cells were then subjected to cross-linking by 1% formaldehyde. Chromatin fragments were then immunoprecipitated using antibodies (Ab) against acetylated H3 or Tau and analyzed by quantitative PCR for the presence of the GAL4 UAS promoter. Quantification of enrichment is represented as fold-enrichment relative to IgG. Data are mean±SD **P<0.01***P<0.001
The ChIP protocol used was previously described (Lefebvre et al., 2006). Primers sequences for the pGL4.31[luc2P/GAL4 UAS/Hygro] promoter were: forward, 5′-[…]-3′ (SEQ ID N^o1), and reverse, 5′-[…]-3′ (SEQ ID N^o2); for p21 promoter: distal forward 5′-[…]-3′ (SEQ ID N^o3) and reverse 5′-[…]-3′ (SEQ ID N^o4); proximal forward 5′-[…]-3′ (SEQ ID N^o5) and reverse 5′-[…]-3′ (SEQ ID N^o6); p21 (transcription start site) TSS forward: 5′-[…]-3′ (SEQ ID N^o7) and reverse 5′-GCTCTCTCACCTCCTCTG3′ (SEQ ID N^o8); for GAPDH TSS: forward 5′-[…]-3′ (SEQ ID N^o9) and reverse 5′-[…]-3′ (SEQ ID N^o10). Antibodies used in the studies included the following: anti-acetylated H3 (Active motif, 39139) and anti-Tau1 (Millipore, MAB3420). All ChIP analyses were performed in at least two independent experiments.
To test this hypothesis, we next performed chromatin immunoprecipitations assays. Antibodies specific for acetylated H3 (ac-H3) and Tau were used to immunoprecipitate formaldehyde-cross-linked sonicated chromatin from short hairpin Tau knockdowns and control cells treated, or not, with 100 nM TSA. Quantitative PCR analysis of input or immunoprecipitated DNA using acetylated H3 and Tau antibodies was carried out to detect different promoter regions. As a control of non-TSA-inducible gene, we first used primers encompassing the transcription start site of the GAPDH promoter. No change in the level of acetylated H3, nor Tau binding, were detected after TSA treatment (FIG. 3A). […] In addition, Tau was detected at the level of these regions in MCF7shctrl cells (≈4-fold enrichment) in absence or presence of TSA treatment (FIG. 3D).

As for `CC(/C=C/C(=O)NO)=C\[C@@H](C)C(=O)c1ccc(N(C)C)cc1` [TSA, 2,4-Heptadienamide, 7-[4-(dimethylamino)phenyl]-N-hydroxy-4,6-dimethyl-7-oxo-, (2E,4E,6R)-], in the assay with breast cancer cell lines, the “lowest dose of TSA inducing cellular responses” value amounted to 100 nM. In assay [1] (100 nM TSA, MCF7shTau cells, p21 proximal and distal regions), the “acetylated H3 enrichment compared to non-treated cells” value was “≈ 10 fold”. Further, the “acetylated H3 enrichment compared to IgG” value in assay [1] (100 nM TSA, shctrl cells) was 70 fold; in assay [1] (shTau cells, irrespective of TSA treatment) it was “≈ 160 fold”. Besides, the “Tau enrichment (occupancy)” value in assay [1] (MCF7shctrl cells, p21 proximal and distal regions, in absence or presence of TSA treatment) was “≈ 4 fold”.

The record behind these values is US20250134952A1, “METHODS FOR IMPROVING THE EFFICACY OF HDAC INHIBITOR THERAPY AND PREDICTING THE RESPONSE TO TREATMENT WITH HDAC INHIBITOR” (INSTITUT NATIONAL DE LA SANTÉ ET DE LA RECHERCHE MÉDICALE, priority 2021, published 2025).
